From patent publication US20240383875A1, “Benzimidazole Pyridine Derivatives” (Hoffmann-La Roche Inc., priority 2022, published 2024) come the findings set out here.

Holding throughout (format): biochemical
One assay concerns the target SIK1 (Homo sapiens, UniProt P57059). Briefly: Enzymatic activity assay SIK1, RapidFire mass spectrometry (phosphorylation of CHK-peptide). As to conditions: RapidFire MS, inhibition of SIK1; read-out: SIK1 RF IC50. Summed up: (§1)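 Human SIK1/2/3, 5/0.5/1.5 nM; 12.5 mM HEPES pH 7.0, 10 mM Mg acetate, 0.005% BSA. 30 min cpd pre-inc, + CHK-peptide (10 μM soln) + ATP (100 μM soln), 45 min RT. Formic acid stop; RF-MS phospho ratio; IC50.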

The next assay concerns the target SIK3 (Homo sapiens, UniProt Q9Y2K2). The assay can be described thus: Enzymatic activity assay SIK3, RapidFire mass spectrometry (phosphorylation of CHK-peptide). To be noted: RapidFire MS, inhibition of SIK3; read-out: SIK3 RF IC50. In outline:
as §1

Another assay concerns the target SIK2 (Homo sapiens, UniProt Q9H0K1). The assay can be described thus: Enzymatic activity assay SIK2, RapidFire mass spectrometry (phosphorylation of CHK-peptide). As to conditions: RapidFire MS, inhibition of SIK2; read-out: SIK2 RF IC50. Summed up:
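Read-out is the summed phospho-species fraction of CHK-peptide by RapidFire mass spectrometry, normalized between DMSO and 1 μM YKL-05-099. The reaction used 0.5 nM SIK2, 100 μM ATP and 10 μM peptide solutions in HEPES pH 7.0/10 mM magnesium acetate for 45 min at ambient temperature.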

Chain of SIK2 (Q9H0K1 whole entry): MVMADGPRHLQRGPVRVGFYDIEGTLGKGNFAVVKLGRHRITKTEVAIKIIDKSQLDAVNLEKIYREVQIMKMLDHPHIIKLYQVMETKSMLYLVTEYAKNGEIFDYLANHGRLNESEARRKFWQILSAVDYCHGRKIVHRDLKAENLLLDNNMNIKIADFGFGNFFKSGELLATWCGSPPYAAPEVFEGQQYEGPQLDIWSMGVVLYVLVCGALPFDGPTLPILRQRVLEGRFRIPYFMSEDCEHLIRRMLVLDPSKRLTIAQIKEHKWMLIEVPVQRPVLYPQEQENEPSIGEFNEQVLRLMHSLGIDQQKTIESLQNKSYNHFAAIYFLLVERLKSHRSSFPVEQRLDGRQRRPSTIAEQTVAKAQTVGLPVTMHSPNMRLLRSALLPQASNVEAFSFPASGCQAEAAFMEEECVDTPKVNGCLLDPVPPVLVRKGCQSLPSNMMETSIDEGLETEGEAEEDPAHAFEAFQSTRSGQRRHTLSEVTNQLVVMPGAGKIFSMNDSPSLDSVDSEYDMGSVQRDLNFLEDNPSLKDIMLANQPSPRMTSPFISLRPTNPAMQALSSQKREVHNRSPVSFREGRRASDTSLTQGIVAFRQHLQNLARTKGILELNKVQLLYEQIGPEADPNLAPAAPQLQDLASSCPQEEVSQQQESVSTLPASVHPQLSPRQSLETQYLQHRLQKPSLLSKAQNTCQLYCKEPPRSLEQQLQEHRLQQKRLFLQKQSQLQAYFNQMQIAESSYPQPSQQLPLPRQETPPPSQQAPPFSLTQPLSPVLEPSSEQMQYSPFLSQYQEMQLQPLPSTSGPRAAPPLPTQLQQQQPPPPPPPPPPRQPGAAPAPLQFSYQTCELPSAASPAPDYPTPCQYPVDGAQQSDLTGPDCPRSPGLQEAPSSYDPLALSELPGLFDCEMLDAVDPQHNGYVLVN
Chain of SIK1 (P57059 whole entry): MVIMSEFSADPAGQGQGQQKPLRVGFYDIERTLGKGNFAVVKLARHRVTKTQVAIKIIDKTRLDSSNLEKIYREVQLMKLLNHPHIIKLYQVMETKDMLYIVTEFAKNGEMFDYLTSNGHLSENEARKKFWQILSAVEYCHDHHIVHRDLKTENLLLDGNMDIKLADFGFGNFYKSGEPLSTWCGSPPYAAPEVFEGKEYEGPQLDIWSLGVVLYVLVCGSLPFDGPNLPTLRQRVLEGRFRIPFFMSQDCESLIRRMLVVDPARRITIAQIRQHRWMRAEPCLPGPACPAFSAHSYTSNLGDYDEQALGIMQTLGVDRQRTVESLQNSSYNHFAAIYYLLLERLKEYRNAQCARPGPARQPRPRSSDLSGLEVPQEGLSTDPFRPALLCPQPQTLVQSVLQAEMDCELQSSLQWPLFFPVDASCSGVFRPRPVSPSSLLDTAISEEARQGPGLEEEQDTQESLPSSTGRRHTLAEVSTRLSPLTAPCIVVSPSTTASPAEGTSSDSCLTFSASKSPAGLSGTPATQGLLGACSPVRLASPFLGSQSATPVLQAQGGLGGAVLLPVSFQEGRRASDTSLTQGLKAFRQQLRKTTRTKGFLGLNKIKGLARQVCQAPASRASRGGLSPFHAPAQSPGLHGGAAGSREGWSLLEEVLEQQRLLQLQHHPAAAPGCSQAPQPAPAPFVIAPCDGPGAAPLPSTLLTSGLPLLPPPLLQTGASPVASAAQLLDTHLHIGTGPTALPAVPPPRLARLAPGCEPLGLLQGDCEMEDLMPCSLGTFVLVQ
Chain of SIK3 (Q9Y2K2 whole entry): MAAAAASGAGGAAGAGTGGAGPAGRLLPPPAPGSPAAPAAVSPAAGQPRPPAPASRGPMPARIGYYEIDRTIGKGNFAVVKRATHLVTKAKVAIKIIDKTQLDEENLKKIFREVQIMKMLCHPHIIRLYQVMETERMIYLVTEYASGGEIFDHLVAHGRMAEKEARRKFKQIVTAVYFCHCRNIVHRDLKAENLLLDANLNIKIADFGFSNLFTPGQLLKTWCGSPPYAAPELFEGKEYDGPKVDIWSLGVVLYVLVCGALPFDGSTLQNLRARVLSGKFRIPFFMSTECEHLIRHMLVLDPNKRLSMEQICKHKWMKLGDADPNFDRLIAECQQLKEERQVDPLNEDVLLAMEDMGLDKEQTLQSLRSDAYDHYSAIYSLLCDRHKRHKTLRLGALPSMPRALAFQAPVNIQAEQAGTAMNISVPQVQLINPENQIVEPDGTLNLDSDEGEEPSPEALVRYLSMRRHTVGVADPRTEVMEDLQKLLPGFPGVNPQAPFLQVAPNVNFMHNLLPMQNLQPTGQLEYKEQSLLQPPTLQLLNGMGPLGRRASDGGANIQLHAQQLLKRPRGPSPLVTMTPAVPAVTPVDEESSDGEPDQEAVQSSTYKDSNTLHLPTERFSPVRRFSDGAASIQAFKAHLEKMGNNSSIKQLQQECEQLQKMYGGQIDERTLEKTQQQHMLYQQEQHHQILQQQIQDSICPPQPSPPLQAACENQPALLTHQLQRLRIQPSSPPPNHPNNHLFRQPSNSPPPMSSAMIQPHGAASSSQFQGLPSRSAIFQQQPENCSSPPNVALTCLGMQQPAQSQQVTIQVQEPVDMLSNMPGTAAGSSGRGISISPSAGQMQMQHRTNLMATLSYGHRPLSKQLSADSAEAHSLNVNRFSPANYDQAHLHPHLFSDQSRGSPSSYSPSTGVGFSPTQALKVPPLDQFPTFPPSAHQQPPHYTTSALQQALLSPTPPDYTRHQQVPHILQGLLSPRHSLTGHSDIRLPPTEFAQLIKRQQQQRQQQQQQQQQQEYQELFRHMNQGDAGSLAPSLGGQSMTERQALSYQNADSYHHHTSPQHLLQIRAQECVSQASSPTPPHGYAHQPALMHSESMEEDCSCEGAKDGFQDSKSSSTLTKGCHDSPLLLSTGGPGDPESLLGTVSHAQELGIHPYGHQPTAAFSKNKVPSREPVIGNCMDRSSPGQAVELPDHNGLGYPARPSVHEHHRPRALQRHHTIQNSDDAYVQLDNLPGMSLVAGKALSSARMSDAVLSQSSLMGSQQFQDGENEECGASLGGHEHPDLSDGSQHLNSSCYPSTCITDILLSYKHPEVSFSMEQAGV

In the case of `Cc1ccc(Nc2ccc3c(c2)ncn3-c2ccc(C(C)O)c(-c3cc(C#N)n(C)n3)n2)nn1` (stereo not drawn) [Example 246, 5-[3-(1-Hydroxyethyl)-6-[5-[(6-methylpyridazin-3-yl)amino]benzimidazol-1-yl]-2-pyridyl]-2-methyl-pyrazole-3-carbonitrile; formic acid], the half-maximal inhibitory concentration (IC50) on SIK1 worked out at 7780 nM; on SIK3 it was 5.4 nM; on SIK2, 29.5 nM.
Taken in the same sequence, the figures for `Cc1ccc(Nc2ccc3ncn(-c4ccc([C@@H](C)O)c(-n5nc(C#N)cc5C)n4)c3c2)nn1` [Example 247, 1-[3-[(1R)-1-hydroxyethyl]-6-[6-[(6-methylpyridazin-3-yl)amino]benzimidazol-1-yl]-2-pyridyl]-5-methyl-pyrazole-3-carbonitrile] were 1440 nM, 46.1 nM and 174 nM.
In the same order, the values of `Cc1ccc(Nc2ccc3c(c2)ncn3-c2ccc(C(C)O)c(-n3nc(C(F)F)cc3C(F)F)n2)nn1` (stereo not drawn) [Example 248, 1-[2-[3,5-Bis(difluoromethyl)pyrazol-1-yl]-6-[5-[(6-methylpyridazin-3-yl)amino]benzimidazol-1-yl]-3-pyridyl]ethanol] are 242 nM, 0.7 nM and 1.8 nM.
In the same order, the values of `Cc1cc(C#N)nn1-c1nc(-n2cnc3cc(Nc4ccc(C(F)(F)F)nn4)ccc32)ccc1C(C)O` (stereo not drawn) [Example 249, 1-[3-(1-Hydroxyethyl)-6-[5-[[6-(trifluoromethyl)pyridazin-3-yl]amino]benzimidazol-1-yl]-2-pyridyl]-5-methyl-pyrazole-3-carbonitrile] are 54 nM, 0.8 nM and 2.2 nM.
Take `CCn1nc(C(F)(F)F)cc1-c1nc(-n2cnc3cc(Nc4ccc(C)nn4)ccc32)ccc1C(C)O` (stereo not drawn) [Example 250, 1-[2-[2-Ethyl-5-(trifluoromethyl)pyrazol-3-yl]-6-[5-[(6-methylpyridazin-3-yl)amino]benzimidazol-1-yl]-3-pyridyl]ethanol]: the IC50 at SIK1 came to 985 nM; on SIK3, 4.8 nM; on SIK2, 25.2 nM.
Taken in the same sequence, the figures for `Cc1ccc(Nc2ccc3c(c2)ncn3-c2ccc([C@@H](C)O)c(-c3cn(CC(F)(F)F)nc3C)n2)nn1` [Example 251, (1R)-1-[6-[5-[(6-Methylpyridazin-3-yl)amino]benzimidazol-1-yl]-2-[3-methyl-1-(2,2,2-trifluoroethyl)pyrazol-4-yl]-3-pyridyl]ethanol] were 63 nM, 0.4 nM and 0.3 nM.
As for `Cc1ccc(Nc2ccc3c(c2)ncn3-c2ccc([C@H](C)O)c(-c3cn(CC(F)(F)F)nc3C)n2)nn1` [Example 252, (1S)-1-[6-[5-[(6-Methylpyridazin-3-yl)amino]benzimidazol-1-yl]-2-[3-methyl-1-(2,2,2-trifluoroethyl)pyrazol-4-yl]-3-pyridyl]ethanol], the IC50 at SIK1 came to 5620 nM; at SIK3, 80.4 nM; on SIK2, 46.8 nM.
Taken in the same sequence, the figures for `Cc1ccc(Nc2ccc3c(c2)ncn3-c2ccc(C(C)O)c(-n3cc(C#N)nn3)n2)nn1` (stereo not drawn) [Example 253, 1-[3-(1-Hydroxyethyl)-6-[5-[(6-methylpyridazin-3-yl)amino]benzimidazol-1-yl]-2-pyridyl]triazole-4-carbonitrile] were 8970 nM, 34.5 nM and 161 nM.
Turning to `Cc1ccc(Nc2ccc3c(c2)ncn3-c2ccc(C(C)O)c(N3C[C@@H](C#N)C[C@H]3C)n2)nn1` (stereo partly drawn) [Example 254, (3S,5R)-1-[3-(1-hydroxyethyl)-6-[5-[(6-methylpyridazin-3-yl)amino]benzimidazol-1-yl]-2-pyridyl]-5-methyl-pyrrolidine-3-carbonitrile], the IC50 on SIK1 stood at 5110 nM; on SIK3 it was 37.3 nM; on SIK2, 150 nM.
Consider `Cc1ccc(Nc2ccc3c(c2)ncn3-c2ccc(C(C)O)c(-c3cc(C#N)nn3C)n2)nn1` (stereo not drawn) [Example 255, 5-[3-(1-hydroxyethyl)-6-[5-[(6-methylpyridazin-3-yl)amino]benzimidazol-1-yl]-2-pyridyl]-1-methyl-pyrazole-3-carbonitrile], for which the IC50 on SIK1 was 12800 nM; on SIK3, 30.4 nM; on SIK2, 194 nM.
Taken in the same sequence, the figures for `Cc1ccc(Nc2ccc3c(c2)ncn3-c2ccc(C(C)O)c(-n3ncc(C#N)n3)n2)nn1` (stereo not drawn) [Example 256, 2-[3-(1-Hydroxyethyl)-6-[5-[(6-methylpyridazin-3-yl)amino]benzimidazol-1-yl]-2-pyridyl]triazole-4-carbonitrile] were 1530 nM, 4.8 nM and 22 nM.
Taken in the same sequence, the figures for `Cc1cc(C#N)nn1-c1nc(-n2cnc3cc(C#N)ccc32)ccc1C(C)O` (stereo not drawn) [Example 263, 1-[6-(3-Cyano-5-methyl-pyrazol-1-yl)-5-(1-hydroxyethyl)-2-pyridyl]benzimidazole-5-carbonitrile] were 330 nM, 158 nM and 144 nM.
In the same order, the values of `CCn1cc(-c2nc(-n3cnc4cc(Nc5ccc(C)nn5)ccc43)ccc2C(C)O)c(C)n1` (stereo not drawn) [Example 264, 1-[2-(1-Ethyl-3-methyl-pyrazol-4-yl)-6-[5-[(6-methylpyridazin-3-yl)amino]benzimidazol-1-yl]-3-pyridyl]ethanol; formic acid] are 851 nM, 1.5 nM and 2.6 nM.
Consider `COCCn1cc(-c2nc(-n3cnc4cc(Nc5ccc(C)nn5)ccc43)ccc2C(C)O)c(C)n1` (stereo not drawn) [Example 265, 1-[2-[1-(2-Methoxyethyl)-3-methyl-pyrazol-4-yl]-6-[5-[(6-methylpyridazin-3-yl)amino]benzimidazol-1-yl]-3-pyridyl]ethanol; formic acid], for which the values for the IC50 on SIK1, on SIK3 and on SIK2 were 270 nM, 1.7 nM and 1.6 nM, respectively.
Take `Cc1ccc(Nc2ccc3c(c2)ncn3-c2ccc(C(C)O)c(-c3cn(CC4CC4)nc3C)n2)nn1` (stereo not drawn) [Example 266, 1-[2-[1-(Cyclopropylmethyl)-3-methyl-pyrazol-4-yl]-6-[5-[(6-methylpyridazin-3-yl)amino]benzimidazol-1-yl]-3-pyridyl]ethanol; formic acid]: the values for the half-inhibitory concentration (IC50) on SIK1, on SIK3 and on SIK2 were 136 nM, 1.4 nM and 1 nM, respectively.
In the same order, the values of `Cc1ccc(Nc2ccc3ncn(-c4ccc(CO)c(-n5nc(C#N)cc5C)n4)c3c2)nn1` [Example 269, 5-Methyl-1-[3-methylol-6-[6-[(6-methylpyridazin-3-yl)amino]benzimidazol-1-yl]-2-pyridyl]pyrazole-3-carbonitrile; formic acid] are 151 nM, 1030 nM and 211 nM.
In the same order, the values of `Cc1ccc(Nc2ccc3c(c2)ncn3-c2ccc(CO)c(-n3nc(C#N)cc3C)n2)nn1` [Example 270, 5-Methyl-1-[3-methylol-6-[5-[(6-methylpyridazin-3-yl)amino]benzimidazol-1-yl]-2-pyridyl]pyrazole-3-carbonitrile; formic acid] are 134 nM, 0.2 nM and 0.8 nM.
In the same order, the values of `CCn1ncc(-c2nc(-n3cnc4cc(Nc5ccc(C)nn5)ccc43)ccc2C(C)O)c1C` (stereo not drawn) [Example 271, 1-[2-(1-Ethyl-5-methyl-pyrazol-4-yl)-6-[5-[(6-methylpyridazin-3-yl)amino]benzimidazol-1-yl]-3-pyridyl]ethanol; formic acid] are 895 nM, 2.1 nM and 7.3 nM.
Regarding `Cc1ccc(Nc2ccc3c(c2)ncn3-c2ccc(C(C)O)c(-c3cnn(CC4CC4)c3C)n2)nn1` (stereo not drawn) [Example 272, 1-[2-[1-(Cyclopropylmethyl)-5-methyl-pyrazol-4-yl]-6-[5-[(6-methylpyridazin-3-yl)amino]benzimidazol-1-yl]-3-pyridyl]ethanol; formic acid], the IC50 amounted to 193 nM at SIK1, 1.2 nM on SIK3 and 2.4 nM at SIK2.
Taken in the same sequence, the figures for `Cc1ccc(Nc2ccc3c(c2)ncn3-c2ccc(C(C)O)c(-c3cnn(CC4CCC4)c3C)n2)nn1` (stereo not drawn) [Example 273, 1-[2-[1-(Cyclobutylmethyl)-5-methyl-pyrazol-4-yl]-6-[5-[(6-methylpyridazin-3-yl)amino]benzimidazol-1-yl]-3-pyridyl]ethanol; formic acid] were 115 nM, 1.5 nM and 1.2 nM.
In the same order, the values of `Cc1ccc(Nc2ccc3c(c2)ncn3-c2ccc(C(C)O)c(-c3cn(CC4CCC4)nc3C)n2)nn1` (stereo not drawn) [Example 274, 1-[2-[1-(Cyclobutylmethyl)-3-methyl-pyrazol-4-yl]-6-[5-[(6-methylpyridazin-3-yl)amino]benzimidazol-1-yl]-3-pyridyl]ethanol] are 120 nM, 1.1 nM and 1.2 nM.
In the same order, the values of `Cc1ccc(Nc2cc3ncn(-c4ccc(C(C)O)c(-n5nc(C#N)cc5C)n4)c3cc2C(F)(F)F)nn1` (stereo not drawn) [Example 275, 1-[3-(1-hydroxyethyl)-6-[5-[(6-methylpyridazin-3-yl)amino]-6-(trifluoromethyl)benzimidazol-1-yl]-2-pyridyl]-5-methyl-pyrazole-3-carbonitrile] are 800 nM, 15.9 nM and 6.1 nM.

Broadly, the IC50 is the point on the concentration scale where inhibition reaches its midpoint.
